Assay results: patent US20240116918A1, “SUBSTITUTED TRICYCLIC COMPOUND AS PRMT5 INHIBITOR AND USE THEREOF” (NANJING SANHOME PHARMACEUTICAL CO., LTD., priority 2019, published 2024)

How the values were obtained:
PRMT5 = PRMT5 (Homo sapiens (Human), UniProt O14744); assay: In vitro evaluation of kinase activity (PRMT5 enzymatic assay, [3H]-SAM FlashPlate); type: biochemical; details: polypeptide substrate H4(1-21)S1ac 100 nM, [3H]-SAM 250 nM, 25° C., 60 min; read-out: Enzyme IC50 PRMT5
Description: Compounds: the compounds of the present invention prepared in the above examples. Each compound was formulated into a 10 mM stock solution with DMSO, and finally diluted into 10 concentrations for detection, with the final concentrations being 10000.00 nM, 3333.33 nM, 1111.11 nM, 370.37 nM, 123.46 nM, 41.15 nM, 13.72 nM, 4.57 nM, 1.52 nM, and 0.51 nM.
Reagents and consumables: PRMTS, purchased from Active Motif, Cat. No. 31921; polypeptide substrate H4(1-21)S1ac, purchased from Gill Biochemical (Shanghai) Co., Ltd., Cat. No. 342095; [^3H]-SAM, purchased From PerkinElmer, Cat. No. NET155V001MC; SAM, purchased from Sigma, Cat. No. A7007-100MG; SAH, purchased from Sigma, Cat. No. A9384-25MG; DTT, purchased from Sangon Bioengineering (Shanghai) Co., Ltd., Cat. No. A620058-0005. Corning-3657, purchased from Corning, Cat. No. 3657; Echo Qualified 384-Well, purchased from Labcyte, Cat. No. P-05525; FlashPlate, purchased from Perkin Elmer, Cat. No. SMP410J001PK.
2.1. Preparation of reaction buffer and reaction stop solution: the composition of 1× reaction buffer was 10 mM Tris-HCl, pH 8.0; 0.01% Tween-20; and 1 mM DTT. The composition of the reaction stop solution was 125 μM […] solution.
The compounds were dissolved in 100% DMSO to prepare 10 mM stock solutions and then diluted to desired concentrations on an Echo 384 well plate.
250 nL of the compounds diluted above were transferred from the Echo 384 well plate to a 384 well reaction plate using the Echo550 instrument.
PRMT5 was added to 1× reaction buffer to form 1.67× enzyme solution.
The polypeptide substrate and [^3H]-SAM were added to 1× reaction buffer to form 2.5× substrate solution (the final concentrations were 100 nM and 250 nM, respectively).
15 μL of 1.67× enzyme solution was added to the wells of a 384 well reaction plate. For control wells without enzymatic activity, the enzyme solution was replaced with 15 μL of 1× reaction buffer. The plate was centrifuged at 1000 rpm for 1 min and incubated at room temperature for 15 min. […]

hERG potassium channel = hERG potassium channel (Homo sapiens (Human), UniProt Q12809)
hERG potassium channel, sequence (Q12809 whole entry): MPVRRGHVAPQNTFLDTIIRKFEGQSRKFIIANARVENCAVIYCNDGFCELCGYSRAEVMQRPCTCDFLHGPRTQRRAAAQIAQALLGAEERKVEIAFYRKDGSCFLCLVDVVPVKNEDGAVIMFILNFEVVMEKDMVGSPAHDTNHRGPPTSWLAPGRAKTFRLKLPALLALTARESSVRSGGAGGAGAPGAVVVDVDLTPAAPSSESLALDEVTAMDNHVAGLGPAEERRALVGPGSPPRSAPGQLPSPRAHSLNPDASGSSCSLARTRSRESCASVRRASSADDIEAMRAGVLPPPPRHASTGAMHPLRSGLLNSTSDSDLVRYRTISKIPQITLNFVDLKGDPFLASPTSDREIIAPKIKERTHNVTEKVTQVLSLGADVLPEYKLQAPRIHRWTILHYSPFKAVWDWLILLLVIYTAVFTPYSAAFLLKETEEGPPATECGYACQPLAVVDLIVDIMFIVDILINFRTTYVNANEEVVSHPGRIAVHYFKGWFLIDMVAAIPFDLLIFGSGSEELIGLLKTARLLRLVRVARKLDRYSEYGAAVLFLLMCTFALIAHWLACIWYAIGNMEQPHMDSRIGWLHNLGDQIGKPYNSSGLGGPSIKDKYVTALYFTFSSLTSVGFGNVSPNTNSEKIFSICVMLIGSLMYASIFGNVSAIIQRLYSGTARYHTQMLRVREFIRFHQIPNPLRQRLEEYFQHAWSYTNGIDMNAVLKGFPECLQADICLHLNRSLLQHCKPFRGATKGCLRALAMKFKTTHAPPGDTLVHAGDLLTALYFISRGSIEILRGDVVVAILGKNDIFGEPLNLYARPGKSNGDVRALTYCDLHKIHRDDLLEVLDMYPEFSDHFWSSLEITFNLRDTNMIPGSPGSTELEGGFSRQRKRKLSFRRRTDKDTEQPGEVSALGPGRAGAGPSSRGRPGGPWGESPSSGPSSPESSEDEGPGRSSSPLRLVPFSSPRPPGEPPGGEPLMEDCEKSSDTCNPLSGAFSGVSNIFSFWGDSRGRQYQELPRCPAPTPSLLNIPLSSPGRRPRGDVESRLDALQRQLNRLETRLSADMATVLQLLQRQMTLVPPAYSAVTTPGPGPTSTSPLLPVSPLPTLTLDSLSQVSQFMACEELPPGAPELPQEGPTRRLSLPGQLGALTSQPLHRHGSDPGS
Description: Preparation of test solvents: preparation of extracellular fluid (mM): 137 NaCl, 4 KCl, 1.8 CaCl2, 1 MgCl2, 10 glucose and 10 HEPES (pH 7.4); preparation of intracellular fluid (mM): 130 KCl, 1 MgCl2, 5 EGTA, 5 MgATP and 10 HEPES (pH 7.2); preparation of negative control: extracellular fluid+0.3% DMSO; positive control: quinidine.
Compound treatment: The compound was weighed and dissolved in DMSO to prepare a 10 mM stock solution, which was diluted with DMSO to form secondary stock solutions with concentrations of 3.3, 1.1, 0.37 and 0.12 mM. 90 μL each of the stock solution and the secondary stock solutions was diluted into 30 mL of extracellular fluid for electrophysiological detection. The final concentrations of the compound were 30, 10, 3.3, 1.1 and 0.37 μM, and the final concentration of DMSO was 3:1000.
Stably transfected cell culture: The cell line was originated from HEK-293 cells overexpressing hERG potassium ion channel. […] The cells were cultured in an incubator at 37° C. and 5% CO2. When the cell density reaches 80% of the petri dish, the cells were first pre-washed with phosphate buffered saline (PBS), then digested with trypsin/EDTA for 2-3 min. Cell culture medium was added to stop the digestion. The cells were gently blown down and transferred to a centrifuge tube, and centrifuged at 1000 rpm for 3 min. The supernatant was discarded, cell culture medium was added, and the cells were mixed uniformly by gentle tapping. After that, the mixture was transferred to a petri dish for subculture, or the cells were dripped on a round glass slide and placed on a petri dish for the cells to adhere for experiments.
Experiments on electrophysiological manual patch-clamp system: The stably transfected cells were inoculated on a glass slide with a cell density lower than 50%, and cultured overnight. The experimental cells were transferred to a bath of about 1 mL embedded in an inverted microscope platform, and the extracellular fluid was perfused at a perfusion rate of 2.7 mL/min. After 5 minutes of stabilization, the experiment was started. Membrane currents were recorded using HEKA EPC-10 patch clamp amplifier and [sequence] acquisition system. All the experiments were performed at room temperature (22-24° C.). Electrodes were drawn straight using P-97 microelectrode drawing instrument (BF150-110-10) in the experiments. The inner diameter of the electrode was 1-1.5 mm, and the pipette resistance after filling with the inner liquid was 2-4 MΩ. The electrophysiological stimulation scheme of hERG potassium channel included: first setting the membrane voltage at −80 mV, applying a stimulation to the cells at +20 mV voltage for 2 s to activate the hERG potassium channel, and then repolarizing to −50 mV for 5 s to generate an outward tail current. The stimulation frequency was once every 15 s. The current value was the peak value of the tail current. The channel currents were recorded in the whole-cell recording mode. Firstly, the extracellular fluid was perfused (about 2 mL per minute) while recording was continued. When the current was stabilized (the current decay (Run-Down) was less than 5% within 5 minutes), the peak value of the tail current was the control current value. Then, the extracellular fluid containing the drug to be tested was perfused while the recording was continued until the inhibitory effect of the drug on the hERG current reached a steady state. At this time, the peak value of the tail current was the current value after drug addition. […]

PRMT5, sequence (O14744 whole entry): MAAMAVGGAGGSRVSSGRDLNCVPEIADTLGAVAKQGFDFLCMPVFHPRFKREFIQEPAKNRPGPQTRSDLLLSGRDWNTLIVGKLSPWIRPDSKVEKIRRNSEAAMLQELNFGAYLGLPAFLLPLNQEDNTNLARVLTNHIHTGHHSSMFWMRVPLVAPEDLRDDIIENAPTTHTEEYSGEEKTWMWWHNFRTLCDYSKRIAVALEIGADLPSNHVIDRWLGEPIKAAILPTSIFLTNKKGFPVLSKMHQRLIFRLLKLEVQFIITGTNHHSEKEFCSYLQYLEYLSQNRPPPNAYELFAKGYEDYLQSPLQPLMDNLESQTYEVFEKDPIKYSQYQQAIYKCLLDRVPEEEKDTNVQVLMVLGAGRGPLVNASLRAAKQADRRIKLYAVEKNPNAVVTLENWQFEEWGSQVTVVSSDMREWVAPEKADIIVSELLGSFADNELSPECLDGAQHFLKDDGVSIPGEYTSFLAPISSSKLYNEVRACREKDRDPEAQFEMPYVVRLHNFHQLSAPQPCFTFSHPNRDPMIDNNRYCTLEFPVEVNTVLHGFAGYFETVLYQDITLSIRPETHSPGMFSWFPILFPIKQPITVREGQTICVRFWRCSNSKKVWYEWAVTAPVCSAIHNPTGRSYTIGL
PRMT5, sequence (Q9BQA1 whole entry partner): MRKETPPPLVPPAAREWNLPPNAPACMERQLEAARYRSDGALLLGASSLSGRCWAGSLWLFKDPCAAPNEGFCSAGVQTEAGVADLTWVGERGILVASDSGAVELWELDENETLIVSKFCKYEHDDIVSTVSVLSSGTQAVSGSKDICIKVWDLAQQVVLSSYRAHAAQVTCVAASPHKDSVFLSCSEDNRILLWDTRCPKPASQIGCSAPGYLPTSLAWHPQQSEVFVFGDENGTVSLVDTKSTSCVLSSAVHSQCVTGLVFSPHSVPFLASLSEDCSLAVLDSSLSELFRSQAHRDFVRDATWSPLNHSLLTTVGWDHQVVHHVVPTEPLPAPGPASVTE

| Structure (SMILES) | IC50 (PRMT5) [nM] | inhibitory effect on the hERG potassium channel (in words) (hERG potassium channel) |
| --- | --- | --- |
| CC(=O)N1CCC(Nc2cc3c(cn2)C2(CC2)CN(C[C@H](O)CN2CCc4ccccc4C2)C3=O)CC1 [Example 1, (R)-7′-((1-acetylpiperidin-4-yl)amino)-2′-(3-(3,4-dihydroisoquinolin-2(1H)-yl)-2-hydroxypropyl)-2′,3′-dihydro-1′H-spiro[cyclopropane-1,4′-[2,6]naphthyridin]-1′-one] | 32.7 |  |
| CC(=O)N1CC2(CC(Nc3cc4c(cn3)C3(CC3)CN(C[C@H](O)CN3CCc5ccccc5C3)C4=O)C2)C1 [Example 2, (R)-7′-((2-acetyl-2-azaspiro[3.3]hept-6-yl)amino)-2′-(3-(3,4-dihydroisoquinolin-2(1H)-yl)-2-hydroxypropyl)-2′,3′-dihydro-1′H-spiro[cyclopropane-1,4′-[2,6]naphthyridin]-1-one] | 49.7 | weak inhibitory effect |
